From patent publication US20230066011A1, “PYRROLOPYRIMIDINE DERIVATIVE, AND PHARMACEUTICAL COMPOSITION FOR PREVENTING OR TREATING PROTEIN KINASE-RELATED DISEASE COMPRISING SAME AS ACTIVE INGREDIENT” (VORONOI CO., LTD., priority 2019, published 2023)

Legend:
human GST-CLK1 = molecular target: T1, human GST-CLK1 (Homo sapiens, UniProt P49759); test: GST-CLK1 enzyme inhibition, ADP-Glo kinase assay; assay type: biochemical; details: ATP 10 μM, GST-CLK1 129-end
T1 construct: purified human GST-CLK1 (129-end, SignalChem) enzyme; purchased SignalChem
Summary of the method: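 ADP-Glo luminescence read-out, relative to untreated solvent control, gave IC50 (nM) from triplicate data sets. Reactions ran an hour at 25° C with 3 ng GST-CLK1 (residues 129-end), 10 μM ATP and specific substrate in Tris-HCl pH 7.4 buffer with MgCl2, BSA and DTT.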

LRRK2 (G2019S) = LRRK2 (G2019S) (Homo sapiens, UniProt Q5S007, G2019S); test: LRRK2 G2019S enzyme inhibition, ADP-Glo kinase assay; assay type: biochemical; set-up: purchased SignalChem L10-12GG; details: ATP 25 μM
Summary of the method: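 IC50 derived from luminescent ADP-Glo readout against untreated solvent control, twelve final compound concentrations from 50 μM downward. Reaction: recombinant human LRRK2 G2019S enzyme, 25 μM ATP, substrate, pH 7.4 Tris buffer with MgCl2/BSA/DTT, 25° C. for 2 hours.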

human GST-DYRK1A = molecular target: T2, human GST-DYRK1A (Homo sapiens, UniProt Q13627); test: GST-DYRK1A enzyme inhibition, ADP-Glo kinase assay; assay type: biochemical; details: ATP 10 μM, GST-DYRK1A full length, read-out: DYRK1 IC50
T2 construct: purified human GST-DYRK1A (full length, Thermo Scientifics) enzyme; purchased Thermo Scientifics
Summary of the method: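 Full-length enzyme (10 ng) was incubated with 10 μM ATP and a specific substrate for 1 h at 25 °C in 40 mM Tris-HCl pH 7.4, 20 mM MgCl2, 0.5 mg/mL BSA, 50 μM DTT. Luminescence was read against a solvent control, and IC50 values were derived from 3 data sets.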

SHP-77 = test: Inhibition of proliferation of SHP-77 cancer cells (Cell Titer-Glo); assay type: cell-based; details: Homo sapiens, SHP77, 72 hours
Description: To evaluate an inhibitory effect on the proliferation of cancer cells, each of an MDA-MB-231 cell line (Korean Cell Line Bank #30026) and an MDA-MB-468 cell line as triple-negative breast cancer cell lines, and SHP-77 (ATCC #CRL-2195) as a small-cell lung cancer cell line was cultured in DMEM (HyClone #SH30243) or an RPMI medium (HyClone #SH3027.01) to analyze a cell growth rate. More specifically, a cell line was plated on a 96-well flat bottom plate (Corning #3903) at a density of 2,000 cells/100 μL per well, and then treated with 11 concentrations of the Example compound, a solution of which was diluted 3-fold so that a final concentration of the compound was 10.000000, 3.333333, 1.111111, 0.370370, 0.123457, 0.041152, 0.013717, 0.004572, 0.001524, 0.000508, and 0.000169 μM. After 72 hours, each of the culture media was treated with 100 μL of Cell Titer-Glo (Promega G7573), and then cultured at room temperature for 10 minutes. Then, a degree of luminescence was measured using a microplate reader. A GI50 value was calculated from the measured degree of luminescence using Prism (Version 8.2 GraphPad) software.

MDA-MB-231 cell line = test: Inhibition of proliferation of MDA-MB-231 cancer cells (Cell Titer-Glo); assay type: cell-based; details: Homo sapiens, 72 hours
Summary of the method: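 A 72-hour treatment with compound (eleven final concentrations, 3-fold apart, top 10 μM) of cells seeded at 2,000 per well preceded a Cell Titer-Glo luminescence read, from which GI50 was obtained.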

LRRK2 = LRRK2 (Homo sapiens, UniProt Q5S007); test: LRRK2 enzyme inhibition, ADP-Glo kinase assay; assay type: biochemical; set-up: purchased Invitrogen PR8604B; details: ATP 10 μM
Summary of the method: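 ADP-Glo luminescent read-out of ADP formed by purified human LRRK2 enzyme (25 ng), 10 μM ATP, 0.2 μg substrate, 25° C for 2 h, Tris-HCl pH 7.4 buffer with MgCl2, BSA, DTT. Inhibition versus untreated solvent control over twelve final concentrations (50 μM downward) gives IC50.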

LRRK2, sequence (Q5S007 970-2527 limits assumed): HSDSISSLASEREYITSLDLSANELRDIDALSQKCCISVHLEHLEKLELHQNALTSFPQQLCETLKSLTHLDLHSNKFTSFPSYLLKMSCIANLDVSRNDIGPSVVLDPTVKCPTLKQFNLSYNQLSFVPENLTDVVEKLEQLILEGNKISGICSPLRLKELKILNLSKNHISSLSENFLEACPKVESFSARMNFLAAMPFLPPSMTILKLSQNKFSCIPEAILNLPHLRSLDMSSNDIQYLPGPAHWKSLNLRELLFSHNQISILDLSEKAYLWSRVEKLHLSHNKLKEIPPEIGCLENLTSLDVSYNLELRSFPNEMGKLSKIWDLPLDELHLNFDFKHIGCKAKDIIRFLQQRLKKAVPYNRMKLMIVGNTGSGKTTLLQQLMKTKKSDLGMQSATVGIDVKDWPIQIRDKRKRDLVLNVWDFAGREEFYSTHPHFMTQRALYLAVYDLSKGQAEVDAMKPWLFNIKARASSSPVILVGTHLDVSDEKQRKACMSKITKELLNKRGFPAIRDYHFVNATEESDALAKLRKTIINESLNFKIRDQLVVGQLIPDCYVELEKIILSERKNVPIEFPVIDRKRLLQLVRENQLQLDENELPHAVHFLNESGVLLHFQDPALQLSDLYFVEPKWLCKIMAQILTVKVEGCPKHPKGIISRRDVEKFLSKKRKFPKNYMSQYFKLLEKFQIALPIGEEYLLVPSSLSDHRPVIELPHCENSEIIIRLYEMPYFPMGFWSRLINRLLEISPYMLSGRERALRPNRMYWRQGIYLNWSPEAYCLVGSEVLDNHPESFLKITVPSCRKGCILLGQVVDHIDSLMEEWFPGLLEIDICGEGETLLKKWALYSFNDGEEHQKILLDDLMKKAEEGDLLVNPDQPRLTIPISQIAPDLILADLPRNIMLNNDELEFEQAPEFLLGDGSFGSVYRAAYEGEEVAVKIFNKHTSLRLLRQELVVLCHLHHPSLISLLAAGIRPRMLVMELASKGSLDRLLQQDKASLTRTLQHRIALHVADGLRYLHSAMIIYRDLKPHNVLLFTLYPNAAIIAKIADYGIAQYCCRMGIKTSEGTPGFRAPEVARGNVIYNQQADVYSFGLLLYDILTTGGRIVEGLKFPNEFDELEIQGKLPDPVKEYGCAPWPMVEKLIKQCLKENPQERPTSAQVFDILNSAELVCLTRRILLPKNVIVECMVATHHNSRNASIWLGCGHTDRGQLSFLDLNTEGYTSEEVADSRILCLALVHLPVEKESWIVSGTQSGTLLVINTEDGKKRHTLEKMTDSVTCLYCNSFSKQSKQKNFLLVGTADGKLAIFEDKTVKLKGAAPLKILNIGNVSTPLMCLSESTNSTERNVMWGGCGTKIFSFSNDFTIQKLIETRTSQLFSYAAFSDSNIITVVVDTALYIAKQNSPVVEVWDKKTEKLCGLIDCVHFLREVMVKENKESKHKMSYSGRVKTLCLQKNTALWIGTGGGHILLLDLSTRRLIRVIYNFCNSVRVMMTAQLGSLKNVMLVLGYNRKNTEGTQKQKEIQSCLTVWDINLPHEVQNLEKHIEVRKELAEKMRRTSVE
LRRK2 (G2019S), sequence (Q5S007 970-2527 G2019S limits assumed): as the sequence (Q5S007 970-2527 limits assumed) above, with G1050S counted along it
T1 sequence (P49759 129-484 limits assumed): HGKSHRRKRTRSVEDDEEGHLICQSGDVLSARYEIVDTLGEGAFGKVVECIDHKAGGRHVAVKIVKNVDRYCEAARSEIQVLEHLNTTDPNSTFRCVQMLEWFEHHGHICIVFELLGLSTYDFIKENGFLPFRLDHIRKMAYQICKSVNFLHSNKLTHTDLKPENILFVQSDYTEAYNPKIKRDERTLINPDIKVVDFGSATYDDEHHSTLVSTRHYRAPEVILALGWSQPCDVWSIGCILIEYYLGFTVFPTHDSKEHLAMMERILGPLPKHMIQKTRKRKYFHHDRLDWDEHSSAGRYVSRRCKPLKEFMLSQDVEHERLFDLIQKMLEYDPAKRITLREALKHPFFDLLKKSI

Compound | IC50 (human GST-CLK1) | IC50 (LRRK2 (G2019S)) | IC50 (human GST-DYRK1A) | GI50 (SHP-77) | GI50 (MDA-MB-231 cell line) | IC50 (LRRK2)
COc1cc(S(=O)(=O)N2CCOCC2)ccc1Nc1nc(NC2CC2)c2c(C#N)c[nH]c2n1 [Example 70, 4-(cyclopropylamino)-2-((2-methoxy-4-(morpholinosulfonyl)phenyl)amino)-7H-pyrrolo[2,3-d]pyrimidine-5-carbonitrile] | 301 to 1000 nM | < 100 nM | 301 to 1000 nM | 301 to 1000 nM | 301 to 1000 nM | < 100 nM
COc1cc(S(=O)(=O)N2CCC(N3CCOCC3)CC2)ccc1Nc1nc(NC(C)C)c2c(C(F)(F)F)c[nH]c2n1 [Example 165, N^4-isopropyl-N^2-(2-methoxy-4-((4-morpholinopiperidin-1-yl)sulfonyl)phenyl)-5-(trifluoromethyl)-7H-pyrrolo[2,3-d]pyrimidine-2,4-diamine] | 301 to 1000 nM | 101 to 300 nM | 301 to 1000 nM | 51 to 100 nM | < 50 nM | < 100 nM
COCC(C)(C)Nc1nc(Nc2ccc(S(=O)(=O)N3CCOCC3)cc2OC)nc2[nH]cc(C(F)(F)F)c12 [Example 175, N^4-(1-methoxy-2-methylpropan-2-yl)-N^2-(2-methoxy-4-(morpholinosulfonyl)phenyl)-5-(trifluoromethyl)-7H-pyrrolo[2,3-d]pyrimidine-2,4-diamine] | 301 to 1000 nM | 301 to 1000 nM | 301 to 1000 nM | 101 to 300 nM | 301 to 1000 nM | 301 to 1000 nM
CNc1nc(Nc2ccc(S(=O)(=O)N3CCOCC3)cc2OC)nc2[nH]cc(C#N)c12 [Example 62, 2-((2-methoxy-4-(morpholinosulfonyl)phenyl)amino)-4-(methylamino)-7H-pyrrolo[2,3-d]pyrimidine-5-carbonitrile] | 301 to 1000 nM | < 100 nM | 301 to 1000 nM | 51 to 100 nM | 51 to 100 nM | < 100 nM
CCCCNc1nc(Nc2ccc(S(=O)(=O)N3CCC(N4CCOCC4)CC3)cc2OC)nc2[nH]cc(C(F)(F)F)c12 [Example 202, N^4-butyl-N^2-(2-methoxy-4-((4-morpholinopiperidin-1-yl)sulfonyl)phenyl)-5-(trifluoromethyl)-7H-pyrrolo[2,3-d]pyrimidine-2,4-diamine] | 301 to 1000 nM | 101 to 300 nM | 301 to 1000 nM | 301 to 1000 nM | 301 to 1000 nM | < 100 nM
COCCNc1nc(Nc2ccc(S(=O)(=O)N3CCC(N4CCOCC4)CC3)cc2OC)nc2[nH]cc(C(F)(F)F)c12 [Example 170, N^2-(2-methoxy-4-((4-morpholinopiperidin-1-yl)sulfonyl)phenyl)-N^4-(2-methoxyethyl)-5-(trifluoromethyl)-7H-pyrrolo[2,3-d]pyrimidine-2,4-diamine] | < 100 nM | < 100 nM | 101 to 300 nM | 101 to 300 nM | 301 to 1000 nM | < 100 nM
CCNc1nc(Nc2ccc(S(=O)(=O)N3CCOCC3)cc2OC)nc2[nH]cc(C(F)(F)F)c12 [Example 191, N^4-ethyl-N^2-(2-methoxy-4-(morpholinosulfonyl)phenyl)-5-(trifluoromethyl)-7H-pyrrolo[2,3-d]pyrimidine-2,4-diamine] | 301 to 1000 nM | 301 to 1000 nM | 301 to 1000 nM | 101 to 300 nM | 301 to 1000 nM | 101 to 300 nM
COc1cc(S(=O)(=O)N2CCOCC2)ccc1Nc1nc(NC(C)C)c2c(C(F)(F)F)c[nH]c2n1 [Example 164, N^4-isopropyl-N^2-(2-methoxy-4-(morpholinosulfonyl)phenyl)-5-(trifluoromethyl)-7H-pyrrolo[2,3-d]pyrimidine-2,4-diamine] | 301 to 1000 nM | 301 to 1000 nM | 301 to 1000 nM | 51 to 100 nM | 301 to 1000 nM | < 100 nM
COc1cc(S(=O)(=O)N2CCC(N3CCOCC3)CC2)ccc1Nc1nc(NCC2CCC2)c2c(C(F)(F)F)c[nH]c2n1 [Example 197, N^4-(cyclobutylmethyl)-N^2-(2-methoxy-4-((4-morpholinopiperidin-1-yl)sulfonyl)phenyl)-5-(trifluoromethyl)-7H-pyrrolo[2,3-d]pyrimidine-2,4-diamine] | 301 to 1000 nM | 101 to 300 nM | 301 to 1000 nM | 301 to 1000 nM | 301 to 1000 nM | < 100 nM
COCCNc1nc(Nc2ccc(S(=O)(=O)N3CCOCC3)cc2OC)nc2[nH]cc(C#N)c12 [Example 69, 2-((2-methoxy-4-(morpholinosulfonyl)phenyl)amino)-4-((2-methoxyethyl)amino)-7H-pyrrolo[2,3-d]pyrimidine-5-carbonitrile] | 301 to 1000 nM | < 100 nM | 301 to 1000 nM | 301 to 1000 nM | 301 to 1000 nM | < 100 nM
CCCNc1nc(Nc2ccc(S(=O)(=O)N3CCOCC3)cc2OC)nc2[nH]cc(C#N)c12 [Example 64, 2-((2-methoxy-4-(morpholinosulfonyl)phenyl)amino)-4-(propylamino)-7H-pyrrolo[2,3-d]pyrimidine-5-carbonitrile] | 301 to 1000 nM | < 100 nM | 301 to 1000 nM | < 50 nM | < 50 nM | < 100 nM
COc1cc(S(=O)(=O)N2CCC(N3CCOCC3)CC2)ccc1Nc1nc(NC2CCC2)c2c(C#N)c[nH]c2n1 [Example 89, 4-(cyclobutylamino)-2-((2-methoxy-4-((4-morpholinopiperidin-1-yl)sulfonyl)phenyl)amino)-7H-pyrrolo[2,3-d]pyrimidine-5-carbonitrile] | 101 to 300 nM | < 100 nM | 301 to 1000 nM | 51 to 100 nM | < 50 nM | < 100 nM
CCCCNc1nc(Nc2ccc(S(=O)(=O)N3CCC(N4CCOCC4)CC3)cc2OC)nc2[nH]cc(C#N)c12 [Example 97, 4-(butylamino)-2-((2-methoxy-4-((4-morpholinopiperidin-1-yl)sulfonyl)phenyl)amino)-7H-pyrrolo[2,3-d]pyrimidine-5-carbonitrile] | 301 to 1000 nM | < 100 nM | 301 to 1000 nM | < 50 nM | < 50 nM | < 100 nM
COc1cc(S(=O)(=O)N2CCC(N3CCOCC3)CC2)ccc1Nc1nc(NC2CCC2)c2c(C(F)(F)F)c[nH]c2n1 [Example 183, N^4-cyclobutyl-N^2-(2-methoxy-4-((4-morpholinopiperidin-1-yl)sulfonyl)phenyl)-5-(trifluoromethyl)-7H-pyrrolo[2,3-d]pyrimidine-2,4-diamine] | 301 to 1000 nM | 101 to 300 nM | 301 to 1000 nM | 301 to 1000 nM | 301 to 1000 nM | < 100 nM
CNc1nc(Nc2ccc(S(=O)(=O)N3CCOCC3)cc2OC)nc2[nH]cc(C(F)(F)F)c12 [Example 160, N^2-(2-methoxy-4-(morpholinosulfonyl)phenyl)-N^4-methyl-5-(trifluoromethyl)-7H-pyrrolo[2,3-d]pyrimidine-2,4-diamine] | 301 to 1000 nM | 301 to 1000 nM | 301 to 1000 nM | 51 to 100 nM | 301 to 1000 nM | < 100 nM
COc1cc(S(=O)(=O)N2CCOCC2)ccc1Nc1nc(NCC2CC2)c2c(C#N)c[nH]c2n1 [Example 77, 4-((cyclopropylmethyl)amino)-2-((2-methoxy-4-(morpholinosulfonyl)phenyl)amino)-7H-pyrrolo[2,3-d]pyrimidine-5-carbonitrile] | 301 to 1000 nM | < 100 nM | 301 to 1000 nM | < 50 nM | < 50 nM | < 100 nM
